Literature values, collected in patent US6713027B2, “Ozonator for sterilizing, decontaminating, disinfecting, and/or sanitizing surgical instruments” (Electroclave, priority 2001, dated 2004).

Test system: pathogenic bacteria and viruses
Conditions: in water; compared with chlorine

Q: Which “rate of eliminating pathogenic bacteria and viruses from water relative to Cl (chlorine)” value does the source give for `O=[O+][O-]` [O3, ozone] here?
A: 3,125 times
